Reference: US10995104B2, “Catalysts for reversing formaldehyde adducts and crosslinks” (Roche Molecular Systems, Inc., priority 2017, dated 2021)

Test system: methylene-bis-dAMP dimer
Assay: Reversal of cross-linking of the methylene-bis-dAMP dimer with catalysts, monitored by HPLC
Settings: 5.0 mM catalyst, 1.0 mM dAMP dimer, 50 mM phosphate buffer pH 5.0, 60° C., aliquots at 10-90 minutes (FIG. 3)
Procedure: Reverse crosslinking of the methylene-bis-dAMP dimer (as shown in FIG. 2) were monitored by HPLC. […] For each reaction mixture, an aliquot (10 μl) was taken at 10 minutes, 20 minutes, 40 minutes, 60 minutes and 90 minutes.

| SMILES | reversal of cross-linking (shown as % of dAMP produced), rate compared with no catalyst |
| --- | --- |
| Cl.Nc1ccccc1B(O)O [Compound 2, 2-Aminophenylboronic acid] | rates that are much faster than when no catalyst was added |
| Cc1ccc(N)c(B(O)O)c1 [Compound 3, (2-Amino-5-methylphenyl)boronic acid] | rates that are much faster than when no catalyst was added |
| CCOP(=O)(OCC)C(N)c1ccccc1.Cl (stereo not shown) [Compound 6, (Aminophenylmethyl)phosphonic acid diethyl ester] | rates that are much faster than when no catalyst was added |
| [Br][Bi]([Br])[Br] [Compound 7, Bismuth (III) bromide] | rates that are much faster than when no catalyst was added |
